Experimental data reported in patent US20160310454A1, “LIVER X RECEPTOR AGONISTS IN THE TREATMENT OF EMPHYSEMA” (priority 2013, published 2016).
Structures can show the parent of a compound that is named as a salt.

Key:
alveolar macrophages = settings: in vitro; cited from earlier work
[1] = test system: mouse macrophages (bone marrow derived, ABCA1 fl/fl WT) treated with 5% CSE; test: Mouse macrophages treated with 5% CSE with or without LXR agonist (RT-PCR, Western blot, zymography); type: cell-based; settings: bone marrow derived macrophages, 5% CSE, LXR agonist 10 μM
Experimental: To prepare cigarette (CSE), the smoke from one cigarette (1.1 mg of nicotine, 15 mg of tar) was passed through 25 mls of phosphate buffered saline (PBS) (Mercer et al., 2004). The pH of the extracted solution was adjusted to 7.4 and then filtered (Mercer et al., 2004). CSE was added to the media at concentrations up to 5% (vol/vol) (Mercer et al., 2004).
In these experiments both mouse peritoneal and mouse bone marrow derived macrophages (BMdM) were utilized. Mouse peritoneal macrophages were isolated from peritoneal cavities of 3% thioglycolate injected mice on the 5th day from injection. To compare expression of genes in vitro and in vivo peritoneal macrophages were isolated from mice exposed to room air and cigarette smoke. For in vitro analysis cells were seeded on culture plates for 24 h and then treated with CSE. For in vivo analysis cells were collected from peritoneal cavity and mRNA was directly isolated. Mouse BMdMs were obtained from the following mice: ABCA1 fl/fl in a C57/BL6 background. Briefly, mice were first sacrificed by CO2 asphyxiation followed by cervical dislocation. After sacrificing the mouse the legs were amputated and the excess muscle tissue was removed so as to completely expose the femur and tibia, which were cleaned carefully. These samples were left in sterile PBS for the duration of the procedure. The cavity bones were then flushed with 10 ml of PBS using 26G needle. The obtained cells were then counted (usually 100-150 million cells per mouse) and centrifuged for 5 min at 2600 rpm. Hematopoietic cells can be separated by plastic adhesion; therefore the cells were incubated in petri dishes containing DMEM culture media and supplemented with 10% FBS and 1% antibiotics). Non-adherent progenitor cells were then collected after 2 hours of incubation in culture media and then seeded at a concentration of 4 million cells/ml in fresh culture media, supplemented with L-cell conditioned media containing macrophage colony stimulating factor (M-CSF) at a concentration of 20%. Approximately after 7-10 days of plating the cells become fully differentiated into macrophages and were ready for subsequent experiments. After treatment the culture supernatants, proteins, and total RNA were collected for analysis. […]
Total RNA was extracted from specimens of lung tissue 0.3 cm^3 in size with the use of the RNeasy kit (Qiagen, Germantown, Md.) (Goldklang et al., 2012). The RNA was then further processed to obtain cDNA, which was used for Real Time (RT) PCR analysis. TaqMan gene expression assays (Applied Biosystems, Carlsbad, Calif.) were performed to assess gene-transcript levels with the use of an ABI Prism 7900HT Sequence Detection System (Applera, Foster City, Calif.) (Goldklang et al., 2012). The following primers were used to check the respective gene expression: ABCA1 (Hs01059118_m1), ABCG1 (Hs00245154_m1), MMP-9 (Mm00442991_m1), IL-1β (Mm00434227_g1), TNF-α (Mm00443260_g1) and GAPDH (4352932E) from TaqMan Gene Expression Assays, Applied Biosystems, CA. β-actin was used as a control since it is a housekeeping gene.
The lungs of mice (-10 mg) were homogenized in 1 ml of Radioimmunoprecipitation assay (RIPA) buffer, and centrifuged at 14,000 g for 10 min. The protein concentration of each sample was measured using a Bradford reagent. The required amount of each sample was then used for western blot analysis, so that the concentration was equal for all samples. Proteins were first separated on the basis of molecular weight via sodium dodecyl sulphate polyacrylamide gel electrophoresis (SDS-PAGE). The same gel was then transferred onto a nitro cellulose membrane with the help of electric current (or electroblotting) that transfers the protein from polyacrylamide gel to the membrane. This membrane was then incubated in the solution containing primary antibodies, specific for the proteins of interest, ABCA1 and ABCG1, followed by the use of a secondary antibody that allowed the detection of protein by chemiluminescent. […]

[2] = test system: murine disease models of atherosclerosis; settings: mouse, in vivo; cited from earlier work

In the case of O=C(O)Cc1cccc(OCCCN(Cc2cccc(C(F)(F)F)c2Cl)CC(c2ccccc2)c2ccccc2)c1 [GW3965, 3-[3-[N-(2-Chloro-3-trifluoromethylbenzyl)-(2,2-diphenylethyl)amino]propyloxy]phenylacetic acid hydrochloride], the “CXC10, CCL5, and IL-10 production” value (alveolar macrophages) is given as “anti-inflammatory effects”, the “production of TNFα, IL-1β, or CXCL8” value (alveolar macrophages) is given as “did not significantly suppress” and the “MMP9 expression (mRNA) after smoke exposure” value [1] is given as “able to block”. For the same compound, the “cholesterol level in serum and liver” value [2] was “lowers” and the development of atherosclerosis [2] was “inhibits”.
In the case of CON(C)C(=O)CC[C@@H](C)[C@H]1CC[C@H]2[C@@H]3C[C@H](O)[C@@H]4C[C@H](O)CC[C@]4(C)[C@H]3CC[C@]12C [hypocholamide], the “cholesterol level in serum and liver” value [2] is listed as “lowers” and the development of atherosclerosis [2] is listed as “inhibits”.
